Test results: patent US20070128217A1 (priority 2003, published 2007)

Key:
[1] = test system: antibodies in sera from SARS patients (sera 1a, 1b, 2, 6, 37, 62, London, SARS-yellow, SARS-green); type: binding, human; set-up: Binding of serum 6 to linear peptides of protein X1 of SARS-CoV Urbani / Binding of serum 37 to linear peptides of protein X1 of SARS-CoV Urbani / Binding of serum 6 to looped/cyclic peptide (PEPSCAN-ELISA) / Binding of serum 37 to looped/cyclic peptide (PEPSCAN-ELISA) / Binding of serum 37 to looped/cyclic peptides of protein X1 of SARS-CoV Urbani / Binding of serum 6 to linear peptides of protein X2 / Binding of serum 37 to linear peptides of protein X2 / Binding of serum 37 to looped/cyclic peptides of protein X2 of SARS-CoV Urbani / Binding of serum 6 to linear peptides of protein M of SARS-CoV Urbani / Binding of serum 37 to linear peptides of protein M of SARS-CoV Urbani / Binding of serum 6 to looped/cyclic peptides of protein M of SARS-CoV Urbani / Binding of serum 37 to looped/cyclic peptides of protein M of SARS-CoV Urbani / Binding of serum 6 to linear peptides of protein X3 of SARS-CoV Urbani / Binding of serum 37 to linear peptides of protein X3 of SARS-CoV Urbani / Binding of serum 37 to looped/cyclic peptides of protein X3 of SARS-CoV Urbani / Binding of serum 6 to linear peptides of protein X4 of SARS-CoV Urbani / Binding of serum 37 to linear peptides of protein X4 of SARS-CoV Urbani / Binding of serum 37 to looped/cyclic peptides of protein X4 of SARS-CoV Urbani / Binding of serum 6 to linear peptides of protein X5 of SARS-CoV Urbani / Binding of serum 37 to linear peptides of protein X5 of SARS-CoV Urbani / Binding of serum 37 to looped/cyclic peptides of protein X5 of SARS-CoV Urbani / Binding of serum 6 to linear peptides of protein N of SARS-CoV Urbani / Binding of serum 37 to linear peptides of protein N of SARS-CoV Urbani / Binding of serum 6 to linear peptide (PEPSCAN-ELISA) / Binding of serum 1a to looped/cyclic peptides of protein N of SARS-CoV Urbani / Binding of serum 1b to looped/cyclic peptides of protein N of SARS-CoV Urbani / Binding of serum 2 to looped/cyclic peptides of protein N of SARS-CoV Urbani / Binding of serum 6 to looped/cyclic peptides of protein N of SARS-CoV Urbani / Binding of serum 37 to looped/cyclic peptides of protein N of SARS-CoV Urbani / Binding of serum 62 to looped/cyclic peptides of protein N of SARS-CoV Urbani / Binding of serum London to looped/cyclic peptides of protein N of SARS-CoV Urbani / Binding of serum SARS-green to looped/cyclic peptides of protein N of SARS-CoV Urbani: unit not given here
[2] = test system: control sera (pooled serum of ten healthy LUMC hospital workers; commercial negative donor pooled serum from the Dutch bloodbank); type: binding, human; set-up: Binding of Control serum LUMC to linear peptides / Binding of Control serum Blood-bank to linear peptides / Binding of Control serum LUMC to looped peptides / Binding of Control Serum Blood-Bank to Looped peptides / Binding of Control serum LUMC to linear peptides of the protein M of SARS-CoV Urbani / Binding of Control serum Blood-bank to linear peptides of the protein M of SARS-CoV Urbani / Binding of Control serum LUMC to looped peptides of the protein M of SARS-CoV Urbani / Binding of Control Serum Blood-Bank to Looped peptides of the protein M of SARS-CoV Urbani: unit not given here
[3] = test system: rabbit serum obtained by immunizing a rabbit with the SARS-CoV strain Frankfurt 1; type: binding; set-up: Binding of a rabbit serum to linear peptides / Binding of a rabbit serum to looped peptides / Rabbit serum linear peptides / Rabbit serum looped peptides / Binding of a rabbit serum to linear peptides of protein N of SARS-CoV Urbani (Rabbit serum linear peptides) / Binding of a rabbit serum to looped/cyclic peptides of protein N of SARS-CoV Urbani (Rabbit serum looped peptides): unit not given here
[4] = test system: recombinant human anti-SARS-CoV antibody 03-018; type: binding; set-up: Binding of antibody 03-018 to linear peptides of the N protein of SARS-CoV Urbani / Binding of antibody 03-018 to looped/cyclic peptides of the N protein of SARS-CoV Urbani: unit not given here

Sequence | Binding of serum 1a to linear peptides of protein N of SARS-CoV Urbani [1] | Binding of serum 1a to looped/cyclic peptides of protein N of SARS-CoV Urbani [1] | Binding of serum 1b to linear peptides of protein N of SARS-CoV Urbani [1] | Binding of serum 1b to looped/cyclic peptides of protein N of SARS-CoV Urbani [1] | Binding of serum 2 to linear peptides of protein N of SARS-CoV Urbani [1] | Binding of serum 2 to looped/cyclic peptides of protein N of SARS-CoV Urbani [1] | Binding of serum 6 to looped/cyclic peptides of protein N of SARS-CoV Urbani [1] | Binding of serum 37 to looped/cyclic peptides of protein N of SARS-CoV Urbani [1] | Binding of serum 62 to looped/cyclic peptides of protein N of SARS-CoV Urbani [1] | Binding of serum London to looped/cyclic peptides of protein N of SARS-CoV Urbani [1] | Binding of serum SARS-green to looped/cyclic peptides of protein N of SARS-CoV Urbani [1] | Binding of serum SARS-yellow to looped/cyclic peptides of protein N of SARS-CoV Urbani [1] | Binding of Control Serum Blood-Bank to Looped peptides [2] | Binding of Control serum Blood-bank to linear peptides [2] | Binding of Control serum LUMC to linear peptides [2] | Binding of Control serum LUMC to looped peptides [2] | Binding of a rabbit serum to linear peptides of protein N of SARS-CoV Urbani (Rabbit serum linear peptides) [3] | Binding of a rabbit serum to looped/cyclic peptides of protein N of SARS-CoV Urbani (Rabbit serum looped peptides) [3] | Binding of antibody 03-018 to linear peptides of the N protein of SARS-CoV Urbani [4] | Binding of antibody 03-018 to looped/cyclic peptides of the N protein of SARS-CoV Urbani [4] | further results
ALNTPKDHIGTRNPN | 0.3 | 0.4 | 0.1 | 0.3 | 0.3 | 0.5 | 0.3 | 0.5 | 0.5 | 0.3 | 0.5 | 0.0 | 0.5 | 0.8 | 0.6 | 0.4 | 0.2 | 0.2 | 0.1 | 0.2 | Binding of serum 6 to linear peptides of protein N of SARS-CoV Urbani [1]: 0.2; Binding of serum 37 to linear peptides of protein N of SARS-CoV Urbani [1]: 0.7; Binding of serum 62 to linear peptides of protein N of SARS-CoV Urbani [1]: 0.6; Binding of serum London to linear peptides of protein N of SARS-CoV Urbani [1]: 0.5; Binding of serum SARS-green to linear peptides of protein N of SARS-CoV Urbani [1]: 0.4; Binding of serum SARS-yellow to linear peptides of protein N of SARS-CoV Urbani [1]: 0.5
SWFTALTQHGKEELR | 0.2 | 0.2 | 0.1 | 0.1 | 0.2 | 0.2 | 0.1 | 0.3 | 0.2 | 0.2 | 0.1 | 0.0 | 0.4 | 0.6 | 0.7 | 0.3 | 0.1 | 0.0 | 0.1 | 0.2 | Binding of serum 6 to linear peptides of protein N of SARS-CoV Urbani [1]: 0.1; Binding of serum 37 to linear peptides of protein N of SARS-CoV Urbani [1]: 0.6; Binding of serum 62 to linear peptides of protein N of SARS-CoV Urbani [1]: 0.6; Binding of serum London to linear peptides of protein N of SARS-CoV Urbani [1]: 0.5; Binding of serum SARS-green to linear peptides of protein N of SARS-CoV Urbani [1]: 0.2; Binding of serum SARS-yellow to linear peptides of protein N of SARS-CoV Urbani [1]: 0.5
NFGDQDLIRQGTDYK | – | 0.2 | – | 0.1 | – | 0.2 | 0.1 | 0.4 | 0.3 | 0.3 | 0.2 | 0.1 | 0.5 | 0.8 | 0.7 | 0.4 | 0.1 | 0.1 | 0.1 | 0.2 | Binding of serum 1a to linear peptide (PEPSCAN-ELISA) [1]: 0.3; Binding of serum 1b to linear peptide (PEPSCAN-ELISA) [1]: 0.2; Binding of serum 2 to linear peptide (PEPSCAN-ELISA) [1]: 0.2; Binding of serum 6 to linear peptide (PEPSCAN-ELISA) [1]: 0.2; Binding of serum 37 to linear peptide (PEPSCAN-ELISA) [1]: 0.7; Binding of serum 62 to linear peptide (PEPSCAN-ELISA) [1]: 0.7; Binding of serum London to linear peptide (PEPSCAN-ELISA) [1]: 0.6; Binding of serum SARS-green to linear peptide (PEPSCAN-ELISA) [1]: 0.8; Binding of serum SARS-yellow to linear peptide (PEPSCAN-ELISA) [1]: 0.6
LALLLLDRLNQLESK | – | 0.3 | – | 0.2 | – | 0.4 | 0.2 | 0.5 | 0.5 | 0.4 | 0.6 | 0.4 | 0.7 | 0.7 | 0.6 | 0.6 | 0.1 | 0.6 | 0.1 | 0.2 | Binding of serum 1a to linear peptide (PEPSCAN-ELISA) [1]: 0.2; Binding of serum 1b to linear peptide (PEPSCAN-ELISA) [1]: 0.1; Binding of serum 2 to linear peptide (PEPSCAN-ELISA) [1]: 0.1; Binding of serum 6 to linear peptide (PEPSCAN-ELISA) [1]: 0.1; Binding of serum 37 to linear peptide (PEPSCAN-ELISA) [1]: 0.5; Binding of serum 62 to linear peptide (PEPSCAN-ELISA) [1]: 0.5; Binding of serum London to linear peptide (PEPSCAN-ELISA) [1]: 0.7; Binding of serum SARS-green to linear peptide (PEPSCAN-ELISA) [1]: 0.4; Binding of serum SARS-yellow to linear peptide (PEPSCAN-ELISA) [1]: 0.5
